Here are results for two molecules from PMC7411652 (Sensors (Basel, Switzerland), 2020).

The target of one data set is T1, CYP1A1 enzyme (Homo sapiens, UniProt P04798).
T1 construct: expressed in transfected cells; host or cells: Saccharomyces cerevisiae W303-1A derived strains yRD+ (+CPR) and yRD-::Bax (-CPR)
T1 sequence (P04798 1-512): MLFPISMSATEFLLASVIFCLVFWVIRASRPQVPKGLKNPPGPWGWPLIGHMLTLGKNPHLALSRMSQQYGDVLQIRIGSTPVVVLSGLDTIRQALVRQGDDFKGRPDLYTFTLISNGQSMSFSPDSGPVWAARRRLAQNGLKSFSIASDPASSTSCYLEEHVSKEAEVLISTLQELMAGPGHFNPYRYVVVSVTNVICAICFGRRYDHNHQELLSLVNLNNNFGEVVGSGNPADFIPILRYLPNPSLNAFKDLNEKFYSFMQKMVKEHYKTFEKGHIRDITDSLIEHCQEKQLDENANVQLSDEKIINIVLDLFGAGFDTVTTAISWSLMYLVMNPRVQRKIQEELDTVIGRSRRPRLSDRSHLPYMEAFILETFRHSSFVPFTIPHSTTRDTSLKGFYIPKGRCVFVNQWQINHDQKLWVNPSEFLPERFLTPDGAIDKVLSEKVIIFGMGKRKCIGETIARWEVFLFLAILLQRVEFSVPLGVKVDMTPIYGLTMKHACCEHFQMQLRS
The experiment in a line: Live-cell IC50 determination, CYP1A1 expressed in yeast cells, 7-ethoxyresorufin (7-ER) substrate. It counts as cell-based. As to conditions: 1 × 10^7 cells, 10 min incubation. The procedure: The IC50 values were calculated using the GraphPad Prism software.

In the next data set the test system is CYP1A1 Supersomes. To be noted: read-out: IC50 for inhibition of CYP1A1 Supersomes; insect cell-derived microsomes, Corning-Gentest; cited from earlier work.
In a further data set the test system is CYP1A2 Supersomes. Also on record: method as in PMID 19359406. To be noted: insect cell-derived microsomes, Corning-Gentest, 10 min incubation with microsomal enzyme; read-out: IC50 for inhibition of CYP1A2 Supersomes; cited from earlier work.

Like-named read-outs stand apart in the source and are kept apart here.

The term IC50 denotes the midpoint of a concentration-inhibition curve.

Regarding `O=c1cc(-c2ccccc2)oc2c1ccc1ccccc12` [ANF, Alpha-naphthoflavone], the IC50 on CYP1A1 enzyme (live yeast strain yRD+ (+CPR), read-out: IC50 for inhibition of CYP1A1 in yRD+ cells) is 0.0208 µM; at CYP1A1 enzyme (live yeast strain yRD−:: Bax (–CPR), read-out: IC50 for inhibition of CYP1A1 in yRD- cells), 0.0213 µM; in the data set with CYP1A1 Supersomes, 0.018 µM.

For `Cc1nc2c([nH]1)c(=O)n(C)c(=O)n2Cc1ccco1` [Furafylline], the IC50 in the data set on CYP1A2 Supersomes is 6.1 µM.
